Laboratory results taken from US11753407B2, “Compounds for treating spinal muscular atrophy” (PTC Therapeutics, Inc., priority 2012, dated 2023).

Tests used:
[1] = system: Smn protein in SMA patient fibroblast cells (GM03813); experiment: Smn protein assay in cultured cells (SMN HTRF); type: cell-based, human; settings: SMA patient fibroblast cells, 48 hours; for EC1.5x for Smn protein expression: 7-point concentration curve, SMN HTRF, concentration producing 1.5 times Smn protein vs DMSO vehicle control; for maximum fold (Fold) increase of Smn protein: 7-point concentration data, fold relative to vehicle control
Outline: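 SMA patient fibroblasts (5,000 cells/well, DMEM-10% FBS) were treated for 48 h at 37 °C with a 7-point, 3.16-fold dilution series in triplicate. RIPA lysates were probed by HTRF (anti-SMN d2/kryptate, overnight, room temperature), reading 665/620 nm. EC1.5× is the concentration giving 1.5-fold Smn over DMSO vehicle.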

[2] = system: SMN2 minigene mRNA (SMN2-A minigene) in HEK293H cells; experiment: SMN2 minigene mRNA splicing RT-qPCR assay in cultured cells; type: cell-based, human; settings: Homo sapiens, HEK293-H; concentration increasing full length SMN2 mRNA 1.5-fold relative to vehicle-treated cells; HEK293H cells with SMN2-A minigene, 24 hours, 7-point concentration data; read-out: EC1.5x for production of full length SMN2 mRNA
Outline: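 HEK293H cells stably carrying the SMN2-A minigene were treated for 24 h at 37 °C with a 7-point, 3.16-fold dilution series of compound. Multiplex RT-qPCR measured exon 7-containing minigene FL mRNA against GAPDH, expressed relative to vehicle by modified ΔΔCt; the EC1.5× is the concentration giving a 1.5-fold increase.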

| Structure (SMILES) | EC1.5x for Smn protein expression [1] | maximum fold (Fold) increase of Smn protein [1] | EC (1.5-fold increase) [2] [µM] |
| --- | --- | --- | --- |
| CCN1CCC(c2cc(C)c3nc(-c4cc5c(C)nc(C)cn5n4)cc(=O)n3c2)CC1 [Compound 702, 2-(4,6-dimethylpyrazolo[1,5-a]pyrazin-2-yl)-7-(1-ethylpiperidin-4-yl)-9-methyl-4H-pyrido[1,2-a]pyrimidin-4-one] | **** (an EC1.5x≤0.3 μM is indicated by four stars (****)) | ***** (a fold increase >1.65 is indicated by five stars (*****)) | < 0.1 |
| Cc1cn2cc(-c3cc(=O)n4cc(N5CCN[C@H](C)C5)ccc4n3)cc2c(C)n1 [Compound 713, 2-(1,3-dimethylpyrrolo[1,2-a]pyrazin-7-yl)-7-[(3R)-3-methylpiperazin-1-yl]-4H-pyrido[1,2-a]pyrimidin-4-one] | **** (an EC1.5x≤0.3 μM is indicated by four stars (****)) | ***** (a fold increase >1.65 is indicated by five stars (*****)) | < 0.1 |
| Cc1cn2nc(-c3cc(=O)n4cc(CCCN)ccc4n3)cc2c(C)n1 [Compound 742, 7-(3-aminopropyl)-2-(4,6-dimethylpyrazolo[1,5-a]pyrazin-2-yl)-4H-pyrido[1,2-a]pyrimidin-4-one] | *** (an EC1.5× between >0.3 μM and ≤1 μM is indicated by three stars (***)) | ***** (a fold increase >1.65 is indicated by five stars (*****)) | 0.1 to 0.3 |
| Cc1cc(N2CCN[C@H](C)C2)cn2c(=O)cc(-c3ccc4nn(C)cc4c3)nc12 [Compound 755, 9-methyl-2-(2-methyl-2H-indazol-5-yl)-7-[(3R)-3-methylpiperazin-1-yl]-4H-pyrido[1,2-a]pyrimidin-4-one] | **** (an EC1.5x≤0.3 μM is indicated by four stars (****)) | ***** (a fold increase >1.65 is indicated by five stars (*****)) | < 0.1 |
| Cc1cc(N2CCN[C@@H](C)C2)cn2c(=O)cc(-c3ccc4nn(C)cc4c3)nc12 [Compound 756, 9-methyl-2-(2-methyl-2H-indazol-5-yl)-7-[(3S)-3-methylpiperazin-1-yl]-4H-pyrido[1,2-a]pyrimidin-4-one] | **** (an EC1.5x≤0.3 μM is indicated by four stars (****)) | ***** (a fold increase >1.65 is indicated by five stars (*****)) | < 0.1 |
| CCc1nc(C)cn2nc(-c3cc(=O)n4cc(C5=CCNCC5)cc(C)c4n3)cc12 [Compound 773, 2-(4-ethyl-6-methylpyrazolo[1,5-a]pyrazin-2-yl)-9-methyl-7-(1,2,3,6-tetrahydropyridin-4-yl)-4H-pyrido[1,2-a]pyrimidin-4-one] | **** (an EC1.5x≤0.3 μM is indicated by four stars (****)) | ***** (a fold increase >1.65 is indicated by five stars (*****)) | < 0.1 |
| CCc1nc(C)cn2nc(-c3cc(=O)n4cc(C5CCN(C)CC5)cc(C)c4n3)cc12 [Compound 774, 2-(4-ethyl-6-methylpyrazolo[1,5-a]pyrazin-2-yl)-9-methyl-7-(1-methylpiperidin-4-yl)-4H-pyrido[1,2-a]pyrimidin-4-one] | **** (an EC1.5x≤0.3 μM is indicated by four stars (****)) | ***** (a fold increase >1.65 is indicated by five stars (*****)) | < 0.1 |
| CCNC[C@@H]1CCN(c2ccc3nc(-c4cc5c(C)nc(C)cn5n4)cc(=O)n3c2)C1 [Compound 779, 2-(4,6-dimethylpyrazolo[1,5-a]pyrazin-2-yl)-7-{(3S)-3-[(ethylamino)methyl]pyrrolidin-1-yl}-4H-pyrido[1,2-a]pyrimidin-4-one] | **** (an EC1.5x≤0.3 μM is indicated by four stars (****)) | ***** (a fold increase >1.65 is indicated by five stars (*****)) | < 0.1 |
| CCc1nc(C)cn2nc(-c3cc(=O)n4cc(C5CCN(CC)CC5)cc(C)c4n3)cc12 [Compound 790, 2-(4-ethyl-6-methylpyrazolo[1,5-a]pyrazin-2-yl)-7-(1-ethylpiperidin-4-yl)-9-methyl-4H-pyrido[1,2-a]pyrimidin-4-one] | **** (an EC1.5x≤0.3 μM is indicated by four stars (****)) | ***** (a fold increase >1.65 is indicated by five stars (*****)) | < 0.1 |
| Cc1cn2cc(-c3cc(=O)n4cc(N5CCN(CCO)CC5)ccc4n3)cc(F)c2n1 [Compound 801, 2-(8-fluoro-2-methylimidazo[1,2-a]pyridin-6-yl)-7-[4-(2-hydroxyethyl)piperazin-1-yl]-4H-pyrido[1,2-a]pyrimidin-4-one] | *** (an EC1.5× between >0.3 μM and ≤1 μM is indicated by three stars (***)) | ***** (a fold increase >1.65 is indicated by five stars (*****)) | 0.1 to 0.3 |
| CN1CCN(c2ccc3nc(-c4ccc5nccn5c4)cc(=O)n3c2)CC1 [Compound 802, 2-(imidazo[1,2-a]pyridin-6-yl)-7-(4-methylpiperazin-1-yl)-4H-pyrido[1,2-a]pyrimidin-4-one] | * (An EC1.5× for Smn protein expression between >3 μM and ≤10 μM is indicated by one star (*)) | ***** (a fold increase >1.65 is indicated by five stars (*****)) | 1 to 3 |
| Cc1nc2c(F)cc(-c3cc(=O)n4cc(N5CCN6CCC[C@H]6C5)ccc4n3)cc2o1 [Compound 803, 2-(4-fluoro-2-methyl-1,3-benzoxazol-6-yl)-7-[(8aS)-hexahydropyrrolo[1,2-a]pyrazin-2(1H)-yl]-4H-pyrido[1,2-a]pyrimidin-4-one] | **** (an EC1.5x≤0.3 μM is indicated by four stars (****)) | ***** (a fold increase >1.65 is indicated by five stars (*****)) | < 0.1 |
| Cc1cn2nc(-c3cc(=O)n4cc(N5CCC6(CC5)CNC6)ccc4n3)cc2c(C)n1 [Compound 804, 7-(2,7-diazaspiro[3.5]non-7-yl)-2-(4,6-dimethylpyrazolo[1,5-a]pyrazin-2-yl)-4H-pyrido[1,2-a]pyrimidin-4-one] | **** (an EC1.5x≤0.3 μM is indicated by four stars (****)) | ***** (a fold increase >1.65 is indicated by five stars (*****)) | < 0.1 |
| Cc1nc2ccc(-c3cc(=O)n4cc(N5CCN(C)CC5)ccc4n3)cn2n1 [Compound 805, 7-(4-methylpiperazin-1-yl)-2-(2-methyl[1,2,4]triazolo[1,5-a]pyridin-6-yl)-4H-pyrido[1,2-a]pyrimidin-4-one] | *** (an EC1.5× between >0.3 μM and ≤1 μM is indicated by three stars (***)) | ***** (a fold increase >1.65 is indicated by five stars (*****)) | 0.1 to 0.3 |
| Cc1cn2cc(-c3cc(=O)n4cc(N5CCN(C)CC5)ccc4n3)cc(C(F)(F)F)c2n1 [Compound 806, 7-(4-methylpiperazin-1-yl)-2-[2-methyl-8-(trifluoromethyl)imidazo[1,2-a]pyridin-6-yl]-4H-pyrido[1,2-a]pyrimidin-4-one] | **** (an EC1.5x≤0.3 μM is indicated by four stars (****)) | ***** (a fold increase >1.65 is indicated by five stars (*****)) | < 0.1 |
